Results from patent US10765687B2, “Methods and compounds to inhibit enveloped virus release” (Northwestern University, priority 2012, dated 2020).
Read-outs that look alike come from different tables or passages of the source.

What was measured:
COS-1 cells = assay: Cell growth based on cell lysate actin levels (Western); conditions: versus DMSO-treated
Experimental: The levels of actin of cell lysates prepared from DMSO-treated, […]-treated and N20-treated cells were determined by SDS-PAGE followed by Western analysis where the immunoblot were probed with mouse anti-actin antibody.

[1] = test system: ASLV virus like particles (VLPs); assay: ASLV VLP release from 293 cells, Western blot with anti-ASLV Gag antibody; format: cell-based; conditions: FIG. 6A, compared with untreated cells
Experimental: 293/E cells were cultured in DMEM supplemented with 10% fetal bovine serum, penicillin (1,000 units/ml), and streptomycin (1,000 μg/ml) to 50% confluence at 37° C. Expression of plasmids from p2036 was high in 293/E cells because these cells stably express the EBNA1 protein of EBV and the p2036 constructs contain the EBV FR plasmid maintenance element that EBNA 1 binds. Therefore 293/E cells were used when proteins expressed from p2036 were to be detected by western analysis. In all experiments, 24-well plates of 293/E cells were transfected with 0.5 μg of p2036-ASLV Gag with the X-treme Gene9 transfection reagent (Roche Diagnostics, Alameda, Calif., USA) according to the manufacturer's instructions. After 24 h after DNA transfection, the cells were washed with 1×DPS that contained CaCl2 (0.1 mM) and MgCl2 (1 mM) [Gibco #14040-133], and 1 ml of cell culture medium (10% FBS, 1% Penicillin/Streptomycin) containing CaCl2 (0.5 mM) and MgCl2 (5 mM) was added. […]
For the budding assay, both media and cell lysate fractions were collected. […] After blocking of the membrane with wash buffer (10 mM Tris-HCl, pH 8.0, 150 mM NaCl, and 0.1% Tween 20) containing 5% nonfat dry milk, ASLV Gag proteins were detected with an AMV MA (p19) directed monoclonal antibody (mAb) and an anti-mouse IgG-HRP secondary antibody for ECL (Denville Scientific; Metuchen, N.J.).

293 cells [2] = test system: 293 cells
HIV-1 = assay: Specific infectivity by MAGI assay; format: cell-based; conditions: versus DMSO controls
Experimental: The amount of infectious virus normalized to ng of p24 obtained from the ELISA assay in the tissue cultures was determined by multinuclear activation of a galactosidase indicator (MAGI) assay. In this assay, infectious unit is scored by the blue color that is assumed by infected MAGI cells (Hela cells that have been engineered to express the indicator when the infecting particle is able to simulated natural infection up until expression of HIV-1 Tat).

293 cells [3] = assay: Toxicity of inhibitor concentrations to cultured cells of the VLP release assay; conditions: concentrations of FIG. 6A

Row | Structure (SMILES) | Intensity of actin bands of cell lysates (COS-1 cells) | Release of ASLV VLPs from cells [1] | Cell toxicity of inhibitor concentrations (293 cells [2]) | Counts of blue cells per ng p24 (specific infectivity) (HIV-1) | Cell toxicity of inhibitor concentrations (293 cells [3])
1 | Cl.NC(CO)C(=O)NNCc1ccc(O)c(O)c1O (racemic) [Benserazide Hydrochloride, (RS)-2-amino-3-hydroxy-N′-(2,3,4-trihydroxybenzyl) propanehydrazide hydrochloride] | essentially comparable for all samples | budding defect | not cell toxic | comparable | 
2 | CN(C)[C@@H]1C(O)=C(C(N)=O)C(=O)[C@@]2(O)C(=O)C3=C(O)c4c(O)cccc4[C@@](C)(O)[C@H]3[C@H](O)[C@@H]12 [Oxytetracycline, (4S,4aR,5S,5aR,6S,12aS)-4-(dimethylamino)-3,5,6,10,11,12a-hexahydroxy-6-methyl-1,12-dioxo-1,4,4a,5,5a,6,12,12a-octahydrotetracene-2-carboxamide] | essentially comparable for all samples | budding defect |  | comparable | not cell toxic
